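Following 48 hours of exposure in 96-well plates, responses at five concentrations were used to interpolate endpoints linearly. The concentration for 50% growth inhibition is given as GI50. TGI is the concentration that stops growth completely.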
Key:
Experiment in all cases: NCI tumour cell line growth inhibition, 48 h
A498 renal = test system: A498 renal
A549 NSCLC = test system: A549 NSCLC
ACHN renal = test system: ACHN renal
BT-549 breast = test system: BT-549 breast
CAKI-1 renal = test system: CAKI-1 renal
CCRF-CEM leukemia = test system: CCRF-CEM leukemia
COLO 205 colon = test system: COLO 205 colon
DU-145 prostate = test system: DU-145 prostate
EKVX NSCLC = test system: EKVX NSCLC
HCC-2998 colon = test system: HCC-2998 colon
HCT-15 colon = test system: HCT-15 colon
HL-60(TB) leukemia = test system: HL-60(TB) leukemia
HOP-62 NSCLC = test system: HOP-62 NSCLC
HOP-92 NSCLC = test system: HOP-92 NSCLC
HS 578T breast = test system: HS 578T breast
HT29 colon = test system: HT29 colon
IGROV1 ovarian = test system: IGROV1 ovarian
K-562 leukemia = test system: K-562 leukemia
KM12 colon = test system: KM12 colon
LOX IMVI melanoma = test system: LOX IMVI melanoma
MALME-3M melanoma = test system: MALME-3M melanoma
MCF7 breast = test system: MCF7 breast
MDA-MB-231 breast = test system: MDA-MB-231 breast
MDA-MB-435 = test system: MDA-MB-435
MOLT-4 leukemia = test system: MOLT-4 leukemia
NCI-H23 lung = test system: NCI-H23 lung

## Cc1ccc2cnc(N)c(C#Cc3cncc(C(=O)Nc4ccc(CN5CCN(C)CC5)c(C(F)(F)F)c4)c3)c2c1
A498 renal
  GI50: 291 nM
  TGI: 1010 nM
A549 NSCLC
  GI50: 485 nM
  TGI: 1190 nM
ACHN renal
  GI50: 252 nM
  TGI: 864 nM
BT-549 breast
  GI50: 991 nM
  TGI: 1730 nM
CAKI-1 renal
  GI50: 627 nM
  TGI: 1270 nM
CCRF-CEM leukemia
  GI50: 197 nM
  TGI: 897 nM
COLO 205 colon
  GI50: 134 nM
  TGI: 723 nM
DU-145 prostate
  GI50: 387 nM
  TGI: 1030 nM
EKVX NSCLC
  GI50: 317 nM
  TGI: 1010 nM
HCC-2998 colon
  GI50: 582 nM
  TGI: 1300 nM
HCT-15 colon
  GI50: 174 nM
  TGI: 731 nM
HL-60(TB) leukemia
  GI50: 212 nM
  TGI: 908 nM
HOP-62 NSCLC
  GI50: 562 nM
  TGI: 1190 nM
HOP-92 NSCLC
  GI50: 77.1 nM
  TGI: 446 nM
HS 578T breast
  GI50: 274 nM
  TGI: 1390 nM
HT29 colon
  GI50: 106 nM
  TGI: 724 nM
IGROV1 ovarian
  GI50: 231 nM
  TGI: 869 nM
K-562 leukemia
  GI50: 5 nM
  TGI: 619 nM
KM12 colon
  GI50: 5 nM
  TGI: 538 nM
LOX IMVI melanoma
  GI50: 289 nM
  TGI: 934 nM
MALME-3M melanoma
  GI50: 145 nM
  TGI: 620 nM
MCF7 breast
  GI50: 105 nM
  TGI: 718 nM
MDA-MB-231 breast
  GI50: 186 nM
  TGI: 839 nM
MDA-MB-435
  GI50: 166 nM
  TGI: 805 nM
MOLT-4 leukemia
  GI50: 205 nM
  TGI: 936 nM
NCI-H23 lung
  GI50: 492 nM
  TGI: 1250 nM

Reference: PubChem BioAssay (NCI)
